From patent US9695155B2, “Herbicidal substituted pyrimidinyloxy benzene compounds” (E. I. DU PONT DE NEMOURS AND COMPANY, priority 2013, dated 2017)

Legend:
spring barley = test: Test D preemergence; type: in vivo, Hordeum vulgare; conditions: for plant injury at 16 g/ha / plant injury at 31 g/ha / plant injury at 62 g/ha / plant injury at 125 g/ha: Hordeum vulgare, pre-emergence; for plant injury at 16 g/ha: read-out: Plant response rating, Barley, Spring; for plant injury at 31 g/ha / plant injury at 62 g/ha / plant injury at 125 g/ha: scale 0-100, read-out: Plant response rating, Barley, Spring
Excerpt: (§1) Seeds of plant species selected from bluegrass (annual bluegrass, Poa annua), blackgrass (Alopecurus myosuroides), canarygrass (littleseed canarygrass, Phalaris minor), chickweed (common chickweed, Stellaria media), galium (catchweed bedstraw, Galium aparine), bromegrass, downy (downy bromegrass, Bromus tectorum), field poppy (Papaver rhoeas), field violet (Viola arvensis), green foxtail (Setaria viridis), deadnettle (henbit deadnettle, Lamium amplexicaule), Italian ryegrass (Lolium multiflorum), kochia (Kochia scoparia), lambsquarters (Chenopodium album), oilseed rape (Brassica napus), pigweed (Amaranthus retroflexus), chamomile (scentless chamomile, Matricaria inodora), Russian thistle (Salsola kali), speedwell (bird's-eye speedwell, Veronica persica), spring barley (Hordeum vulgare), spring wheat (Triticum aestivum), wild buckwheat (Polygonum convolvulus), wild mustard (Sinapis arvensis), wild oat (Avena fatua), wild radish (Raphanus raphanistrum), windgrass (Apera spica-venti), winter barley (Hordeum vulgare), and winter wheat (Triticum aestivum) were planted into a silt loam soil and treated preemergence with test chemicals formulated in a non-phytotoxic solvent mixture which included a surfactant.
(§2) At the same time, these species were planted in pots containing Redi-Earth® planting medium (Scotts Company, 14111 Scottslawn Road, Marysville, Ohio 43041) comprising spaghnum peat moss, vermiculite, wetting agent and starter nutrients and treated with postemergence applications of the test chemicals formulated in the same manner. Plants ranged in height from 2 to 18 cm (1- to 4-leaf stage). Treated plants and controls were maintained in a controlled growth environment for 7 to 21 days after which time all species were compared to controls and visually evaluated. Plant response ratings, summarized in Table D, are based on a scale of 0 to 100 where 0 is no effect and 100 is complete control. A dash (-) response means no test result.

wild buckwheat = test: Test D preemergence; type: in vivo, Polygonum convolvulus; conditions: for pest or weed control at 16 g/ha / pest or weed control at 31 g/ha / pest or weed control at 62 g/ha / pest or weed control at 125 g/ha: Fallopia convolvulus, pre-emergence; for pest or weed control at 16 g/ha: read-out: Plant response rating, Buckwheat, Wild; for pest or weed control at 31 g/ha / pest or weed control at 62 g/ha / pest or weed control at 125 g/ha: scale 0-100, read-out: Plant response rating, Buckwheat, Wild
Excerpt: as §1, §2

Italian ryegrass = test: Test D postemergence; type: in vivo, Lolium multiflorum; conditions: for pest or weed control at 16 g/ha / pest or weed control at 31 g/ha / pest or weed control at 62 g/ha / pest or weed control at 125 g/ha: Lolium multiflorum, post-emergence; for pest or weed control at 16 g/ha: scale 0-100, read-out: Plant response rating, Ryegrass, Italian; for pest or weed control at 31 g/ha / pest or weed control at 62 g/ha / pest or weed control at 125 g/ha: read-out: Plant response rating, Ryegrass, Italian
Excerpt: as §1, §2

ragweed = test: Test E postemergence; type: in vivo, Ambrosia elatior
Excerpt: Seeds of plant species selected from corn (Zea mays), soybean (Glycine max), velvetleaf (Abutilon theophrasti), lambsquarters (Chenopodium album), wild poinsettia (Euphorbia heterophylla), palmer pigweed (Amaranthus palmeri), waterhemp (common waterhemp, Amaranthus rudis), surinam grass (Brachiaria decumbens), large (Lg) crabgrass (Digitaria sanguinalis), Brazilian crabgrass (Digitaria horizontalis), fall panicum (Panicum dichotomiflorum), giant foxtail (Setaria faberii), green foxtail (Setaria viridis), goosegrass (Eleusine indica), johnsongrass (Sorghum halepense), ragweed (common ragweed, Ambrosia elatior), barnyardgrass (Echinochloa crus-galli), sandbur (southern sandbur, Cenchrus echinatus), arrowleaf sida (Sida rhombifolia), Italian ryegrass (Lolium multiflorum), dayflower (Virginia (VA) dayflower, Commelina virginica), field bindweed (Convolvulus arvensis), morningglory (Ipomoea coccinea), nightshade (eastern black nightshade, Solanum ptycanthum), kochia (Kochia scoparia), yellow nutsedge (Cyperus esculentus), cocklebur (common cocklebur, Xanthium strumarium), smartweed (ladysthumb smartweed, and hairy beggarticks (Bidens pilosa), were planted into a silt loam soil and treated preemergence with test chemicals formulated in a non-phytotoxic solvent mixture which included a surfactant.
At the same time, plants from these crop and weed species and also horseweed (Canada horseweed, Conyza canadensis), waterhemp_RES1, (ALS & Triazine resistant common waterhemp, Amaranthus rudis), and waterhemp_RES2, (ALS & HPPD resistant common waterhemp, Amaranthus rudis) were planted in pots containing Redi-Earth® planting medium (Scotts Company, 14111 Scottslawn Road, Marysville, Ohio 43041) comprising spaghnum peat moss, vermiculite, wetting agent and starter nutrients were treated with postemergence applications of test chemicals formulated in the same manner. Plants ranged in height from 2 to 18 cm for postemergence treatments (1- to 4-leaf stage). Treated plants and controls were maintained in a greenhouse for 14 to 21 days, after which time all species were compared to controls and visually evaluated. Plant response ratings, summarized in Table E, are based on a scale of 0 to 100 where 0 is no effect and 100 is complete control. A dash (-) response means no test result.

crabgrass, naked = test: Test F preemergence; type: in vivo, Digitaria nuda; conditions: 21 days, scale 0 to 100
Excerpt: (§3) Seeds of plant species selected from bermudagrass (Cynodon dactylon), surinam grass (Brachiaria decumbens), large (Lg) crabgrass (Digitaria sanguinalis), crabgrass, naked (naked crabgrass, Digitaria nuda), foxtail, green (green foxtail, Setaria viridis), johnsongrass (Sorghum halepense), kochia (Kochia scoparia), morningglory (pitted morningglory, Ipomoea lacunosa), nutsedge, purple (purple nutsedge, Cyperus rotundus), ragweed (common ragweed, Ambrosia elatior), mustard, black (black mustard, Brassica nigra), guineagrass (Panicum maximum), dallisgrass (Paspalum dilatatum), barnyardgrass (Echinochloa crus-galli), sandbur (southern sandbur, Cenchrus echinatus), sowthistle (common sowthistle, Sonchus oleraceous), Italian ryegrass (Lolium multiflorum), signalgrass (broadleaf signalgrass, Brachiaria platyphylla), dayflower (Virginia (VA) dayflower, Commelina virginica), bluegrass (annual bluegrass, Poa annua), quackgrass (Elytrigia repens), mallow (common mallow, Malva sylvestris), buckwheat, wild (wild buckwheat, Polygonum convolvulus), leafy spurge (Euphorbia esula), chickweed (common chickweed, Stellaria media), wild poinsettia (Euphorbia heterophylla), and pigweed (Amaranthus retroflexus) were planted into a blend of loam soil and sand and treated preemergence with test chemicals formulated in a non-phytotoxic solvent mixture which included a surfactant.
(§4) Treated plants and controls were maintained in a greenhouse for 21 days, after which time all species were compared to controls and visually evaluated. Plant response ratings, summarized in Table F, are based on a scale of 0 to 100 where 0 is no effect and 100 is complete control. A dash (-) response means no test result.

barnyardgrass = test: Test F preemergence; type: in vivo, Echinochloa crus-galli; conditions: 21 days, scale 0 to 100
Excerpt: as §3, §4

mallow = test: Test F preemergence; type: in vivo, Malva sylvestris; conditions: 21 days, scale 0 to 100
Excerpt: as §3, §4

buckwheat, wild = test: Test F preemergence; type: in vivo, Polygonum convolvulus; conditions: 21 days, scale 0 to 100
Excerpt: as §3, §4

[1] = 16 g ai/ha, scale 0 (no effect) to 100 (complete control)
[2] = 31 g ai/ha, scale 0 to 100 (0 no effect, 100 complete control)
[3] = 62 g ai/ha, scale 0 to 100 (0 no effect, 100 complete control)
[4] = 125 g ai/ha, scale 0 to 100 (0 no effect, 100 complete control)

## FCc1cccc(Oc2ncc(Cl)cn2)c1-n1cc(I)cn1 [Compound 245]
Spring barley; [1]
  Plant response rating, Barley, Spring: 0
Spring barley; 31 g ai/ha, scale 0-100
  Plant response rating, Barley, Spring: 5
Spring barley; 62 g ai/ha, scale 0-100
  Plant response rating, Barley, Spring: 15
Spring barley; 125 g ai/ha, scale 0-100
  Plant response rating, Barley, Spring: 35
Wild buckwheat; [1]
  Plant response rating, Buckwheat, Wild: 25
Wild buckwheat; 31 g ai/ha, scale 0-100
  Plant response rating, Buckwheat, Wild: 0
Wild buckwheat; 62 g ai/ha, scale 0-100
  Plant response rating, Buckwheat, Wild: 25
Wild buckwheat; 125 g ai/ha, scale 0-100
  Plant response rating, Buckwheat, Wild: 35
Italian ryegrass; 16 g ai/ha, scale 0-100
  Plant response rating, Ryegrass, Italian: 0
Italian ryegrass; [2]
  Plant response rating, Ryegrass, Italian: 10
Italian ryegrass; [3]
  Plant response rating, Ryegrass, Italian: 20
Italian ryegrass; [4]
  Plant response rating, Ryegrass, Italian: 20

## Clc1cnc(Oc2cccc(Cl)c2-n2cc(I)cn2)nc1 [Compound 181]
ragweed; Postemergence, 31 g ai/ha, scale 0 to 100
  Plant response rating, Ragweed: 25
ragweed; Postemergence, 62 g ai/ha, scale 0 to 100
  Plant response rating, Ragweed: 30
ragweed; Postemergence, 125 g ai/ha, scale 0 to 100
  Plant response rating, Ragweed: 50
ragweed; postemergence, 16 g ai/ha, scale 0 to 100, 0 no effect, 100 complete control
  Plant response rating, Ragweed: 20

## N#Cc1cccc(Oc2ncc(Cl)cn2)c1-n1cc(OC(F)F)cn1 [Compound 97]
crabgrass, naked; 16 g ai/ha
  Plant response rating, Crabgrass, Naked: 100
crabgrass, naked; 31 g ai/ha
  Plant response rating, Crabgrass, Naked: 100
crabgrass, naked; 62 g ai/ha
  Plant response rating, Crabgrass, Naked: 100
crabgrass, naked; 125 g ai/ha
  Plant response rating, Crabgrass, Naked: 100
crabgrass, naked; 250 g ai/ha
  Plant response rating, Crabgrass, Naked: 100
barnyardgrass; 16 g ai/ha
  Plant response rating, Barnyardgrass: 0
barnyardgrass; 31 g ai/ha
  Plant response rating, Barnyardgrass: 90
barnyardgrass; 62 g ai/ha
  Plant response rating, Barnyardgrass: 95
barnyardgrass; 125 g ai/ha
  Plant response rating, Barnyardgrass: 100
barnyardgrass; 250 g ai/ha
  Plant response rating, Barnyardgrass: 100
mallow; 16 g ai/ha
  Plant response rating, Mallow: 30
mallow; 31 g ai/ha
  Plant response rating, Mallow: 75
mallow; 62 g ai/ha
  Plant response rating, Mallow: 98
mallow; 125 g ai/ha
  Plant response rating, Mallow: 100
mallow; 250 g ai/ha
  Plant response rating, Mallow: 100
buckwheat, wild; 16 g ai/ha
  Plant response rating, Buckwheat, Wild: 85
buckwheat, wild; 31 g ai/ha
  Plant response rating, Buckwheat, Wild: 100
buckwheat, wild; 62 g ai/ha
  Plant response rating, Buckwheat, Wild: 100
buckwheat, wild; 125 g ai/ha
  Plant response rating, Buckwheat, Wild: 100
buckwheat, wild; 250 g ai/ha
  Plant response rating, Buckwheat, Wild: 100

## N#Cc1cccc(Oc2ncc(Cl)cn2)c1-n1cc(OCC(F)(F)F)cn1 [Compound 274, 3-[(5-chloro-2-pyrimidinyl)oxy]-2-[4-(2,2,2-trifluoroethoxy)-1H-pyrazol-1-yl]benzonitrile]
Spring barley; [1]
  plant injury at 16 g/ha: 0%
Spring barley; 31 g ai/ha
  plant injury at 31 g/ha: 0%
Spring barley; 62 g ai/ha
  plant injury at 62 g/ha: 10%
Spring barley; 125 g ai/ha
  plant injury at 125 g/ha: 15%
Wild buckwheat; [1]
  pest or weed control at 16 g/ha: 10%
Wild buckwheat; 31 g ai/ha
  pest or weed control at 31 g/ha: 100%
Wild buckwheat; 62 g ai/ha
  pest or weed control at 62 g/ha: 100%
Wild buckwheat; 125 g ai/ha
  pest or weed control at 125 g/ha: 100%
Italian ryegrass; 16 g ai/ha
  pest or weed control at 16 g/ha: 15%
Italian ryegrass; [2]
  pest or weed control at 31 g/ha: 25%
Italian ryegrass; [3]
  pest or weed control at 62 g/ha: 35%
Italian ryegrass; [4]
  pest or weed control at 125 g/ha: 35%
crabgrass, naked; 16 g ai/ha
  Plant response rating, Crabgrass, Naked: 100
crabgrass, naked; 31 g ai/ha
  Plant response rating, Crabgrass, Naked: 100
crabgrass, naked; 62 g ai/ha
  Plant response rating, Crabgrass, Naked: 100
crabgrass, naked; 125 g ai/ha
  Plant response rating, Crabgrass, Naked: 100
crabgrass, naked; 250 g ai/ha
  Plant response rating, Crabgrass, Naked: 100
barnyardgrass; 16 g ai/ha
  Plant response rating, Barnyardgrass: 75
barnyardgrass; 31 g ai/ha
  Plant response rating, Barnyardgrass: 100
barnyardgrass; 62 g ai/ha
  Plant response rating, Barnyardgrass: 100
barnyardgrass; 125 g ai/ha
  Plant response rating, Barnyardgrass: 100
barnyardgrass; 250 g ai/ha
  Plant response rating, Barnyardgrass: 100
mallow; 16 g ai/ha
  Plant response rating, Mallow: 98
mallow; 31 g ai/ha
  Plant response rating, Mallow: 98
mallow; 62 g ai/ha
  Plant response rating, Mallow: 98
mallow; 125 g ai/ha
  Plant response rating, Mallow: 100
mallow; 250 g ai/ha
  Plant response rating, Mallow: 100
buckwheat, wild; 16 g ai/ha
  Plant response rating, Buckwheat, Wild: 100
buckwheat, wild; 31 g ai/ha
  Plant response rating, Buckwheat, Wild: 100
buckwheat, wild; 62 g ai/ha
  Plant response rating, Buckwheat, Wild: 100
buckwheat, wild; 125 g ai/ha
  Plant response rating, Buckwheat, Wild: 100
buckwheat, wild; 250 g ai/ha
  Plant response rating, Buckwheat, Wild: 100

## Fc1cccc(Oc2ncc(Cl)cn2)c1-n1cc(C(F)F)nn1 [Compound 141, 5-chloro-2-[2-[4-(difluoromethyl)-1H-1,2,3-triazol-1-yl]-3-fluorophenoxy]pyrimidine]
Spring barley; [1]
  plant injury at 16 g/ha: 15%
Spring barley; 31 g ai/ha
  plant injury at 31 g/ha: 20%
Spring barley; 62 g ai/ha
  plant injury at 62 g/ha: 65%
Spring barley; 125 g ai/ha
  plant injury at 125 g/ha: 90%
Wild buckwheat; [1]
  pest or weed control at 16 g/ha: 100%
Wild buckwheat; 31 g ai/ha
  pest or weed control at 31 g/ha: 100%
Wild buckwheat; 62 g ai/ha
  pest or weed control at 62 g/ha: 100%
Wild buckwheat; 125 g ai/ha
  pest or weed control at 125 g/ha: 100%
Italian ryegrass; 16 g ai/ha
  pest or weed control at 16 g/ha: 5%
Italian ryegrass; [2]
  pest or weed control at 31 g/ha: 15%
Italian ryegrass; [3]
  pest or weed control at 62 g/ha: 20%
Italian ryegrass; [4]
  pest or weed control at 125 g/ha: 25%
